Laboratory results published in patent US5924973A, “Method of treating a disease process in a luminal structure” (The Trustees of Columbia University in the City of New York, priority 1996, dated 1999).
“And” between values parts separate entries of the source, which are not always exact repeats. Equal entries are not always repeated.

Assays:
[1] = Dual label excretion studies of 188Re-MAG3 and 99mTc-MAG3 in rats (urine, feces); format: in vivo; parameters: Excretion kinetics of ^188 Re-MAG3 in feces of rats, 2 h / Excretion kinetics of ^188 Re-MAG3 in feces of rats, 8 h / Excretion kinetics of ^188 Re-MAG3 in feces of rats, 10 h / Excretion kinetics of ^188 Re-MAG3 in feces of rats, 12 h / Excretion kinetics of ^188 Re-MAG3 in feces of rats, 24 h / Excretion kinetics of ^188 Re-MAG3 in feces of rats, 48 h / Excretion kinetics of ^188 Re-MAG3 in feces of rats, Total: unit not given here
Description: Comparison of the Excretion of ^188 Re-MAG3 with ^99 mTc-MAG3 in rats
Dual Label Excretion Studies of ^188 Re-MAG3 and ^99m Tc-MAG3 in Rats

[2] = Biodistribution of 99mTc-MAG3 and 188Re-MAG3 in a dual label study, tail vein injection; format: in vivo, rats; details: ± standard deviation
Description: Biodistribution Data for ^99m Tc-MAG3 and ^188 Re-MAG3 in a dual label study

[3] = 188Re-MAG3 stability study at high radioactivity levels (HPLC, TLC); format: physicochemical
Method: Stability-^188 Re-MAG3 Stability Study at High Radioactivity Levels
^188 Re-MAG3 was prepared using the protocol as described above however using 1 mL generator eluate to dissolve the contents of a commercial MAG3 Kit and addition of 1 mL of SnCl2 /citrate solution. The starting activity in 1 ml generator eluate was 1220 Mbq (33 mCi). Thus the concentration of citrate and stannous ions were maintained, however the concentration of the Kit contents in especially the Benzoyl-MAG3 precursor is reduced to half of the original protocol.
The stability was tested using HPLC-chromatography and also TLC as additional control.

[4] = Stability of 188Re-MAG3 in presence of Hypaque contrast agent; format: physicochemical
Method: Stability of ^188 Re-MAG3 in Presence of Hypaque Contrast Agent
^188 Re-MAG3 was prepared as in the upper case starting with an activity of 851 Mbq (23 mCi). After the End of Synthesis, QC via HPLC and TLC, 2 mL of a 50% Triazoate solution was added. Triazoate is known as Hypaque and is the 3,5-Bis(acetylamino)-2,4,6-triiodobenzoic acid sodium salt.

[5] = HPLC and ITLC evaluation of 188Re-MAG3 up to five hours after preparation; format: physicochemical; details: periods up to five hours after preparation
[6] = MIRD calculation of individual organ dose of released 188Re-MAG3; details: based on animal data and human 99mTc-MAG3 distribution
Description: As alluded to previously, the probability of balloon rupture at nominal balloon inflation pressures are substantially less than one percent. Animal experiments and calculations of the individual organ dose received by a ^188 Re-MAG3 release have been done. Because the isotope is in solution, there would be no significant local arterial deposition. In fact, attempts to intentionally deposit soluble compounds in vessel walls for their pharmacological properties have been notoriously poor. The distribution and elimination of simultaneously injected ^99 mTc-MAG3 and ^188 Re-MAG3 in rats are identical. Based upon these findings Dr. Michael Stabin of the Oak Ridge Institute for Science and Education (ORISE) has calculated, based on the MIRD formalism, the individual organ dose of released ^188 Re-MAG3. The only organ receiving a dose of greater than 5 cGy would be the urinary bladder wall. This assumes spontaneous urination every 4-6 hours. […] Thus, release of the isotope upon balloon rupture would necessitate placing a bladder catheter until the urinary counts excreted return to background. Based on animal data, and on human ^99m Tc-MAG3 distribution this should occur in less than 12 hours.

[7] = 20 min after mixing with Hypaque
[8] = 80 min after mixing with Hypaque
[9] = 140 min after mixing with Hypaque
[10] = EOS - before addition of Hypaque

SMILES: O=C(O)C[N]1C(=O)C[N]2C(=O)C[N]3C(=O)C[S][188Re-]132=[O] [^188 Re-MAG3]
- Excretion kinetics of ^188 Re-MAG3 in feces of rats, 2 h ([1]; feces, 2 h, individual rats #1-4, 120 min): 0.03 and 1.50 and 0.01
- Excretion kinetics of ^188 Re-MAG3 in feces of rats, 4 h ([1]; feces, 4 h, individual rats #1-4): 0
- Excretion kinetics of ^188 Re-MAG3 in feces of rats, 6 h ([1]; feces, 6 h, individual rats #1-4): 0
- Excretion kinetics of ^188 Re-MAG3 in feces of rats, 8 h ([1]; feces, 8 h, individual rats #1-4, 480 min): 0.02 and 0 and 1.30 and 0.04
- Excretion kinetics of ^188 Re-MAG3 in feces of rats, 10 h ([1]; feces, 10 h, individual rats #1-4, 600 min): 0.41 and 3.79 and 1.79 and 1.67
- Excretion kinetics of ^188 Re-MAG3 in feces of rats, 12 h ([1]; feces, 12 h, individual rats #1-4, 720 min): 1.17 and 1.09 and 0 and 2.24
- Excretion kinetics of ^188 Re-MAG3 in feces of rats, 24 h ([1]; feces, 24 h, individual rats #1-4, 1440 min): 5.86 and 6.46 and 4.47 and 3.46
- Excretion kinetics of ^188 Re-MAG3 in feces of rats, 48 h ([1]; feces, 48 h, individual rats #1-4, 2880 min): 0.85 and 2.26 and 0.52 and 0.70
- Excretion kinetics of ^188 Re-MAG3 in feces of rats, Total ([1]; feces, Total, individual rats #1-4): 8.34 and 15.1 and 8.08 and 8.12
- Excretion kinetics of ^188 Re-MAG3 in feces of rats, Total, mean ([1]; feces, Total, mean of 4 rats, S.D. on separate line): 9.91
- distribution and elimination, 99mTc-MAG3 versus 188Re-MAG3 ([1]; simultaneously injected in rats): identical
- Excretion kinetics of ^188 Re-MAG3 in urine of rats, 6 h, mean ([1]; urine, 6 h, mean of 4 rats, S.D. on separate line): 0.97
- Excretion kinetics of ^188 Re-MAG3 in urine of rats, 8 h, mean ([1]; urine, 8 h, mean of 4 rats, S.D. on separate line): 2.75
- Excretion kinetics of ^188 Re-MAG3 in urine of rats, 10 h, mean ([1]; urine, 10 h, mean of 4 rats, S.D. on separate line): 1.15
- Excretion kinetics of ^188 Re-MAG3 in urine of rats, 12 h, mean ([1]; urine, 12 h, mean of 4 rats, S.D. on separate line): 0.83
- Excretion kinetics of ^188 Re-MAG3 in urine of rats, 24 h, mean ([1]; urine, 24 h, mean of 4 rats, S.D. on separate line): 5.07
- Excretion kinetics of ^188 Re-MAG3 in urine of rats, 48 h, mean ([1]; urine, 48 h, mean of 4 rats, S.D. on separate line): 1.76
- Excretion kinetics of ^188 Re-MAG3 in urine of rats, Total, mean ([1]; urine, Total, mean of 4 rats, S.D. on separate line): 81.97
- Biodistribution of ^188 Re-MAG3, blood ([2]; 2 h): 0.07 ± 0.01 % inj. dose/g tissue
- Biodistribution of ^188 Re-MAG3, blood ([2]; 6 h): 0.08 ± 0.02 % inj. dose/g tissue
- Biodistribution of ^188 Re-MAG3, blood ([2]; 24 h): 0.05 ± 0.02 % inj. dose/g tissue
- Biodistribution of ^188 Re-MAG3, bone ([2]; 2 h): 0.09 ± 0.11 % inj. dose/g tissue
- Biodistribution of ^188 Re-MAG3, bone ([2]; 6 h): 0.01 ± 0.01 % inj. dose/g tissue
- Biodistribution of ^188 Re-MAG3, bone ([2]; 24 h): 0.04 ± 0.05 % inj. dose/g tissue
- Biodistribution of ^188 Re-MAG3, contents of l.i. ([2]; 2 h): 0.87 ± 0.32 % inj. dose/g tissue
- Biodistribution of ^188 Re-MAG3, contents of l.i. ([2]; 6 h): 1.42 ± 0.33 % inj. dose/g tissue
- Biodistribution of ^188 Re-MAG3, contents of l.i. ([2]; 24 h): 0.05 ± 0.01 % inj. dose/g tissue
- Biodistribution of ^188 Re-MAG3, contents of s.i. ([2]; 2 h): 1.97 ± 2.58 % inj. dose/g tissue
- Biodistribution of ^188 Re-MAG3, contents of s.i. ([2]; 6 h): 0.06 ± 0.05 % inj. dose/g tissue
- Biodistribution of ^188 Re-MAG3, contents of s.i. ([2]; 24 h): 0.02 ± 0.01 % inj. dose/g tissue
- Biodistribution of ^188 Re-MAG3, heart ([2]; 2 h): 0.02 ± 0.03 % inj. dose/g tissue
- Biodistribution of ^188 Re-MAG3, heart ([2]; 6 h): 0.00 ± 0.00 % inj. dose/g tissue
- Biodistribution of ^188 Re-MAG3, heart ([2]; 24 h): 0.01 ± 0.00 % inj. dose/g tissue
- Biodistribution of ^188 Re-MAG3, kidneys ([2]; 2 h): 0.12 ± 0.03 % inj. dose/g tissue
- Biodistribution of ^188 Re-MAG3, kidneys ([2]; 6 h): 0.11 ± 0.02 % inj. dose/g tissue
- Biodistribution of ^188 Re-MAG3, kidneys ([2]; 24 h): 0.07 ± 0.01 % inj. dose/g tissue
- Biodistribution of ^188 Re-MAG3, l. intestine ([2]; 2 h): 0.06 ± 0.02 % inj. dose/g tissue
- Biodistribution of ^188 Re-MAG3, l. intestine ([2]; 6 h): 0.13 ± 0.03 % inj. dose/g tissue
- Biodistribution of ^188 Re-MAG3, l. intestine ([2]; 24 h): 0.02 ± 0.00 % inj. dose/g tissue
- Biodistribution of ^188 Re-MAG3, liver ([2]; 2 h): 0.03 ± 0.01 % inj. dose/g tissue
- Biodistribution of ^188 Re-MAG3, liver ([2]; 6 h): 0.03 ± 0.00 % inj. dose/g tissue
- Biodistribution of ^188 Re-MAG3, liver ([2]; 24 h): 0.02 ± 0.00 % inj. dose/g tissue
- Biodistribution of ^188 Re-MAG3, lung ([2]; 2 h): 0.05 ± 0.02 % inj. dose/g tissue
- Biodistribution of ^188 Re-MAG3, lung ([2]; 6 h): 0.02 ± 0.00 % inj. dose/g tissue
- Biodistribution of ^188 Re-MAG3, lung ([2]; 24 h): 0.01 ± 0.01 % inj. dose/g tissue
- Biodistribution of ^188 Re-MAG3, s. intestine ([2]; 2 h): 0.06 ± 0.04 % inj. dose/g tissue
- Biodistribution of ^188 Re-MAG3, s. intestine ([2]; 6 h): 0.01 ± 0.00 % inj. dose/g tissue
- Biodistribution of ^188 Re-MAG3, s. intestine ([2]; 24 h): 0.01 ± 0.00 % inj. dose/g tissue
- Biodistribution of ^188 Re-MAG3, spleen ([2]; 2 h): 0.03 ± 0.02 % inj. dose/g tissue
- Biodistribution of ^188 Re-MAG3, spleen ([2]; 6 h): 0.00 ± 0.01 % inj. dose/g tissue
- Biodistribution of ^188 Re-MAG3, spleen ([2]; 24 h): 0.02 ± 0.01 % inj. dose/g tissue
- Biodistribution of ^188 Re-MAG3, thyroid ([2]; 2 h): 0.70 ± 0.49 % inj. dose/g tissue
- Biodistribution of ^188 Re-MAG3, thyroid ([2]; 6 h): 0.76 ± 0.42 % inj. dose/g tissue
- Biodistribution of ^188 Re-MAG3, thyroid ([2]; 24 h): 0.74 ± 0.76 % inj. dose/g tissue
- Stability, HPLC ([3]; 1 hour after EOS): 92.0%
- Stability, HPLC ([3]; 2 hours after EOS): 91.1%
- Stability, HPLC ([3]; 3 hours after EOS): 90.3%
- Stability, HPLC ([3]; 4 hours after EOS): 88.3%
- Stability, HPLC ([3]; 5 hours after EOS): 100.8%
- Stability, HPLC ([3]; 24 hours after EOS): 92.4%
- Stability, TLC ([3]; 24 hours after EOS): 93.4%
- Stability, TLC ([3]; End of Synthesis (EOS)): 97.3%
- Stability, HPLC ([3]; End of Synthesis (EOS), starting activity 1220 Mbq (33 mCi)): 97.3%
- Stability in presence of Hypaque, HPLC [4, 7]: > 90%
- Stability in presence of Hypaque, TLC [4, 7]: 94.4%
- Stability in presence of Hypaque, TLC ([4]; 50 min after mixing with Hypaque): 90.5%
- Stability in presence of Hypaque, HPLC [4, 8]: 86.6%
- Stability in presence of Hypaque, TLC [4, 8]: 87.7%
- Stability in presence of Hypaque, HPLC [4, 9]: 83.3%
- Stability in presence of Hypaque, TLC [4, 9]: 83.3%
- Stability in presence of Hypaque, HPLC [4, 10]: > 95%
- Stability in presence of Hypaque, RP-Sep-Pak [4, 10]: 98.3%
- Stability in presence of Hypaque, TLC [4, 10]: 97.6%
- radioactive degradation product found ([4]; after mixing with Hypaque): free perrhenate
- stability by HPLC and ITLC [5]: no decomposition or effects of radiolysis have been observed
- time until urinary counts excreted return to background [6]: less than 12 hours
